Data from patent US20060217359A1, “Therapeutic procedures” (priority 2003, published 2006).

How the values were obtained:
[1] = target: LDL / apoB-100 (Homo sapiens, UniProt P04114); experiment: Circular dichroism of LDL secondary structure; assay type: biochemical; details: LDL 100 μg/ml, compound 10 μM, PBS pH 7.4, 37° C., up to 48 h; for random coil of LDL after incubation: native LDL 27±2%; for α helical structure of LDL after incubation (loss of secondary structure): native LDL ~40±2%
Procedure: Circular dichroism. […] Spectra were recorded in the peptidic range (200-260 nm). To increase the signal-to-noise ratio, multiple spectra (three) were averaged for each measurement.

[2] = Cytotoxicity assay (LDH release), WI-L2; assay type: cell-based; details: human
Procedure: (§1) Cytotoxicity assays. WI-L2 human B-lymphocyte line, HAAE-1 human abdominal aortic endothelial line, MH—S murine alveolar macrophage line, and J774A.1 murine tissue macrophage line were obtained from the ATCC. Human aortic endothelial cells (HAEC) and human vascular smooth muscle cells (VSMS) were obtained from Cambrex Bio Science. Jurkat E6-1T-lymphocytes were kindly provided by Dr. J. Kaye (The Scripps Research Institute). Cells were cultured in ATCC-recommended media with 10% fetal calf serum. Cells were incubated in a controlled atmosphere at 37° C., with 5 or 7% CO2. For lactate dehydrogenase (LDH) release assays, adherent cells were harvested either by addition of 0.05% trypsin/EDTA or by scraping. The cells obtained were seeded onto 96-well microtiter plates (25,000 cells/well) and allowed to recover for 24-48 h. […] Cytotoxicity was then determined by measuring lactate dehydrogenase (LDH) release from cells in culture. […] 100% Cytotoxicity was defined as the maximum amount of LDH released by dead cells as shown by trypan blue exclusion, or the highest amount of LDH detected upon lysis of cells by 0.9% Triton X-100. The IC50 values were determined by comparison of the raw duplicate data for concentration versus cytotoxicity (%) to non-linear regression analysis (Hill plot) using Graphpad v3.0 software for Macintosh. […]

[3] = Cytotoxicity assay (LDH release), HAEC; assay type: cell-based; details: human, 0-100 μM
Procedure: as §1

[4] = Cytotoxicity assay (LDH release), VSMC; assay type: cell-based; details: human, 0-100 μM
Procedure: as §1

[5] = Cytotoxicity assay (LDH release), Jurkat; assay type: cell-based; details: human
Procedure: as §1

[6] = Cytotoxicity assay (LDH release), MH-S; assay type: cell-based, murine; details: mouse, MH-S cells, 0-100 μM
Procedure: as §1

[7] = Cytotoxicity assay (LDH release), J774A.1; assay type: cell-based, murine; details: mouse, J774A.1 cells, 0-100 μM
Procedure: as §1

[8] = Decrease of extractable 5a in stored plasma; assay type: in vitro ADME; details: stored human plasma, preliminary investigations
Excerpt: The combined organic fractions were evaporated in vacuo.

Sequence of LDL / apoB-100 (P04114 28-4563): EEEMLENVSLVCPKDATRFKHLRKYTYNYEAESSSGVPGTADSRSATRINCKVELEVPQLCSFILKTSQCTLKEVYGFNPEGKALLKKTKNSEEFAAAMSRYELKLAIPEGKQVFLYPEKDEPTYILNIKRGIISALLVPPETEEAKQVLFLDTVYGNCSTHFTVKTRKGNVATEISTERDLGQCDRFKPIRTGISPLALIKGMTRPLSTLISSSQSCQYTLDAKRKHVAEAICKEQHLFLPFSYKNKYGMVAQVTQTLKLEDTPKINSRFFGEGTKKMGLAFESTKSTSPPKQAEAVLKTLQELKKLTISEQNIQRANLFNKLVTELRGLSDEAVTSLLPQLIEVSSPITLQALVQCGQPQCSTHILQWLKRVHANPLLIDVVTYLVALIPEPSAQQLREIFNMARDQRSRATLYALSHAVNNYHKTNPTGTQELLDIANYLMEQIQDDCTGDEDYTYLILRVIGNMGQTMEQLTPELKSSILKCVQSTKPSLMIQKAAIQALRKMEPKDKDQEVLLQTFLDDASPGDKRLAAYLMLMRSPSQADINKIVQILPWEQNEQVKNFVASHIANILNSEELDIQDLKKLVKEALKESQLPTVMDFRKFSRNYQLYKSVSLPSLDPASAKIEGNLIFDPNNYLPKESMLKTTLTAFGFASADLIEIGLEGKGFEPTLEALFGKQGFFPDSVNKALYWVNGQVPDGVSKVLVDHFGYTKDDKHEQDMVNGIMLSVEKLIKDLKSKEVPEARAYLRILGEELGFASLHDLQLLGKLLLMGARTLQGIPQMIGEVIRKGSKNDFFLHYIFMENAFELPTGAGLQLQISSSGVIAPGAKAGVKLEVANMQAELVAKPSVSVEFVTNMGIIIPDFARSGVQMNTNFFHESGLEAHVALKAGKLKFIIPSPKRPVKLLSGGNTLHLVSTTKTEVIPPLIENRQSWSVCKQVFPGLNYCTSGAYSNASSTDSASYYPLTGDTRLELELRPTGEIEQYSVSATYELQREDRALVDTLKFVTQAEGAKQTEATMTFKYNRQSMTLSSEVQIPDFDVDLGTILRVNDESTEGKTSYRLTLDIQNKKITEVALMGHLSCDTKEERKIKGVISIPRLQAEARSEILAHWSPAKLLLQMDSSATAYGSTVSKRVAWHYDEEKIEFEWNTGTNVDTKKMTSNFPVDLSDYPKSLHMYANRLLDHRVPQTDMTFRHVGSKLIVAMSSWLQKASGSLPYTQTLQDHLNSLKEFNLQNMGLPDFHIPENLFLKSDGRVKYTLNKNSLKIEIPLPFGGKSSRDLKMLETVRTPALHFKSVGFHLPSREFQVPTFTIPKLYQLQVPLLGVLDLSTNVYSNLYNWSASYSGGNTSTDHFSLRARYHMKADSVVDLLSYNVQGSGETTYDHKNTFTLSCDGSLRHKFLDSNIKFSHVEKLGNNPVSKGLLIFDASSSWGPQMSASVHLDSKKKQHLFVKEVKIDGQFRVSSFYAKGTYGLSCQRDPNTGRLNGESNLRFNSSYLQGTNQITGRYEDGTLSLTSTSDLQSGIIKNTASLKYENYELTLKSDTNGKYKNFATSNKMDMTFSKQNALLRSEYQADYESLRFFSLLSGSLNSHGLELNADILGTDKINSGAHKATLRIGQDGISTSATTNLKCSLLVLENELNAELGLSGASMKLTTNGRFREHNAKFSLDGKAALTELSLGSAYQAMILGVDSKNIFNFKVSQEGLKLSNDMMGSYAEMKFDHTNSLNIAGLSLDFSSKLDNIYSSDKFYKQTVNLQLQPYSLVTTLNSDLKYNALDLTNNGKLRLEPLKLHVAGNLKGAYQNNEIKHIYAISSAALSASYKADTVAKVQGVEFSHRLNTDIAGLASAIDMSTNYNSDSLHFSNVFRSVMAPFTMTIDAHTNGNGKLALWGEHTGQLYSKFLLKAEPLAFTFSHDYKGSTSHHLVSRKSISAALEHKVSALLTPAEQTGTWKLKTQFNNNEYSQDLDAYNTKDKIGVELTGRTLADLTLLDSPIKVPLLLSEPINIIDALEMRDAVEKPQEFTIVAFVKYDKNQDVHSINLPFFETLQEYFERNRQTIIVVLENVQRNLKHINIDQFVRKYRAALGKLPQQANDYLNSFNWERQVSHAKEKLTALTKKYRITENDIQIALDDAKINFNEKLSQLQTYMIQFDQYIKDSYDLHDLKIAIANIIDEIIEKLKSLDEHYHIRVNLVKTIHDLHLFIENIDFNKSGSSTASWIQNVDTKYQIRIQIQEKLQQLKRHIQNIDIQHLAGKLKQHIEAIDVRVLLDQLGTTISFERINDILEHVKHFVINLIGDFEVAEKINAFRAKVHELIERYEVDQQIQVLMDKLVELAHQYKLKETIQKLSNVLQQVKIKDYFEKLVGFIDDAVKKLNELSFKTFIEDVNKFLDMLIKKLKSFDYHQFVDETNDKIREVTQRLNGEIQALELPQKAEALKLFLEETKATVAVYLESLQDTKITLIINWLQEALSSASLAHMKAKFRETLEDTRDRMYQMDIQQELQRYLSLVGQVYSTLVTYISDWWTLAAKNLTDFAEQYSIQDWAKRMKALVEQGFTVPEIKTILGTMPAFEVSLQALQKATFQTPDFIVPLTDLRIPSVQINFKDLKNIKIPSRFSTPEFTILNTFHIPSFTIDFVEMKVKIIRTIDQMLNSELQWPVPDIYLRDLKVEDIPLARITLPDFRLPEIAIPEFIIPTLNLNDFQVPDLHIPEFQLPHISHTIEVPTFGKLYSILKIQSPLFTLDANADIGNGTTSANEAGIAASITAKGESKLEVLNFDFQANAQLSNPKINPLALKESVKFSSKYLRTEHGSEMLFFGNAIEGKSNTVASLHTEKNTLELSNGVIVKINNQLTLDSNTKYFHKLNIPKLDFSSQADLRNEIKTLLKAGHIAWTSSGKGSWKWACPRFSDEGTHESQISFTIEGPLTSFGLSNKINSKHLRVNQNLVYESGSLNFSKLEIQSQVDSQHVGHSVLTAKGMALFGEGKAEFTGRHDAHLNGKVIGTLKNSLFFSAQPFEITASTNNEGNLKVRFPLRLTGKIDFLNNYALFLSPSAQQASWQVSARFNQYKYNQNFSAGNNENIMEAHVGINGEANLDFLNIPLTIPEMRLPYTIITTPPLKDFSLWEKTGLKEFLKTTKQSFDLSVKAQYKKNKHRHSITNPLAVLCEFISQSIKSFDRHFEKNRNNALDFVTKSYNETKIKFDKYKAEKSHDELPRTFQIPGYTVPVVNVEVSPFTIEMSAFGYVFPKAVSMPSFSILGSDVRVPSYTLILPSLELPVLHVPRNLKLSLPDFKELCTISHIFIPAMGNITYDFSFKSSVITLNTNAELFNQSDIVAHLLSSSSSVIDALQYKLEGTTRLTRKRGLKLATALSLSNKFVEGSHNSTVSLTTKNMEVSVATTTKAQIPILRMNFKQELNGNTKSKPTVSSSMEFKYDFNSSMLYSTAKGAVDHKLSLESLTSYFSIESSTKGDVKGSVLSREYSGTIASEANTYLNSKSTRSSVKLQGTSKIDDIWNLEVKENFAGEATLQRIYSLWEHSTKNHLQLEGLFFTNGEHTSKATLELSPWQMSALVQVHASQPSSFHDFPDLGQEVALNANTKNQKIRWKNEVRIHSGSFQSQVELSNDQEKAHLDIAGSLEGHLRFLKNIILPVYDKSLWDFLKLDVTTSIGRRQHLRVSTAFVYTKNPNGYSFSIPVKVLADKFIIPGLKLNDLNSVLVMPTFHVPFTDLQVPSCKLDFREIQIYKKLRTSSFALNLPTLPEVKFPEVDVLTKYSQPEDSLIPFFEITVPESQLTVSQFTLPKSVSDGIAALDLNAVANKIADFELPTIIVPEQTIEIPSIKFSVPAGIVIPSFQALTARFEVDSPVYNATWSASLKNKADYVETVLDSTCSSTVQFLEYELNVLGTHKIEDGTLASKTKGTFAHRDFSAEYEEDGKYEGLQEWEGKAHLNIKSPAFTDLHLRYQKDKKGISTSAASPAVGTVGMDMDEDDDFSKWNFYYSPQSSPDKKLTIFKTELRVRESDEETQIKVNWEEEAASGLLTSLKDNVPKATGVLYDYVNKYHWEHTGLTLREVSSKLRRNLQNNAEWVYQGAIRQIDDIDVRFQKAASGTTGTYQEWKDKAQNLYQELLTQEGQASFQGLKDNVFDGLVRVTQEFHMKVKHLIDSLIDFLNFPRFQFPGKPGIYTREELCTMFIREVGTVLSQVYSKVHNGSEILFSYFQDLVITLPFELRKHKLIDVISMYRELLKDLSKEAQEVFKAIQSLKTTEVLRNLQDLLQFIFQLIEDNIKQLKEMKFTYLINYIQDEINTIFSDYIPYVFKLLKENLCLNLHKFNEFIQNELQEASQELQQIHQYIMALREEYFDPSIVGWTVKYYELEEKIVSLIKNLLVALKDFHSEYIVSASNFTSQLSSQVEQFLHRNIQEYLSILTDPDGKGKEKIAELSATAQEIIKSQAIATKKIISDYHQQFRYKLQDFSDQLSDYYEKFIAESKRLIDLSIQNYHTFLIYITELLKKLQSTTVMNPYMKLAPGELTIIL

Row | SMILES | random coil of LDL after incubation [1] | α helical structure of LDL after incubation (loss of secondary structure) [1] | IC50 at 18 h [2] | IC50 at 18 h ([3]; human aortic endothelial cells (HAEC)) | IC50 at 18 h ([4]; vascular smooth muscle cells (VSMC)) | IC50 at 18 h [5] | IC50 at 18 h [6] | IC50 at 18 h ([2]; WIL2 cells, 18 h, 0-100 μM, read-out: IC50 (cytotoxicity, LDH release)) | IC50 at 18 h ([3]; HAEC cells) | IC50 at 18 h ([4]; VSMC cells) | IC50 at 18 h [7] | decrease of the amount that can be extracted from plasma [8] | IC50 at 18 h ([5]; Jurkat E6.1 cells, 18 h, 0-100 μM, read-out: IC50 (cytotoxicity, LDH release))
1 | CC(C)CCC[C@@H](C)[C@H]1CCC2C(CC=O)C([C@@]3(C)CC[C@H](O)CC3=O)CC[C@@]21C (stereo partly drawn) [4a, 3β-Hydroxy-5-oxo-5,6-secocholestan-6-al] | ~39±2% | ~23±5% | 10.9 ± 1.6 µM | 24.6 ± 3.2 µM | 21.9 ± 2.2 µM | 15.5 ± 1.7 µM |  |  |  |  |  |  | 
2 | CC(C)CCC[C@@H](C)[C@H]1CCC2C3C(CC[C@@]21C)[C@@]1(C)CC[C@H](O)C[C@@]1(O)[C@@H]3C=O (stereo partly drawn) [5a, 3β-Hydroxy-5β-hydroxy-B-norcholestane-6β-carboxaldehyde] | 32±4% | ~20±2% |  |  |  |  | 13.6 ± 1.1 µM | 17.7 ± 2.3 µM | 18.2 ± 1.9 µM | 29.8 ± 2.8 µM | 26.1 ± 2.8 µM | about 5 % per day | 12.6 ± 1.9 µM
